Experimental data reported in ChEMBL document CHEMBL1137465, “Cytostatic evaluations of nucleoside analogs related to unnatural base pairs for a genetic expansion system” (Bioorg Med Chem Lett, 2007).

Columns and labels:
CCRF-CEM [1] = experiment: Cytostatic activity against human CCRFCEM cells by MTT assay; assay type: functional, cell-based
HT-1080 [2] = experiment: Cytostatic activity against human HT1080 cells by MTT assay; assay type: functional, cell-based
[3] = Cytostatic activity against human WI38 cells MTT assay; assay type: ADME, cell-based; conditions: WI-38
HT-1080 [4] = experiment: Cytostatic activity against human HT1080 cells at 500 uM by MTT assay; assay type: functional
[5] = Cytostatic activity against human WI38 cells at 500 uM by MTT assay; assay type: ADME, cell-based, WI-38
CCRF-CEM [6] = experiment: Cytostatic activity against human CCRFCEM cells at 500 uM by MTT assay; assay type: functional
HT-1080 [7] = experiment: Cytostatic activity against human HT1080 cells assessed as relative percent survival at 5 uM by MTT assay; assay type: functional; conditions: read-out: Survival
HT-1080 [8] = experiment: Cytostatic activity against human HT1080 cells assessed as relative percent survival at 25 uM by MTT assay; assay type: functional; conditions: read-out: Survival
[9] = Cytostatic activity against human WI38 cells assessed as relative percent survival at 5 uM by MTT assay; assay type: ADME, cell-based, WI-38; conditions: read-out: Survival
WI-38 = experiment: Cytostatic activity against human WI38 cells assessed as relative percent survival at 25 uM by MTT assay; assay type: functional; conditions: read-out: Survival

| IC50 (CCRF-CEM [1]) | IC50 (HT-1080 [2]) | Compound | IC50 [3] | inhibition at 500 µM (HT-1080 [4]) | inhibition at 500 µM [5] | inhibition at 500 µM (CCRF-CEM [6]) | other results |
| --- | --- | --- | --- | --- | --- | --- | --- |
| 2.3 µM | 0.33 µM | OC[C@H]1O[C@@H](n2cnc3c(-c4cccs4)ncnc32)[C@H](O)[C@@H]1O | 5.7 µM |  |  |  |  |
| 420 µM | 95 µM | OC[C@H]1O[C@@H](n2cnc3c(-c4cccs4)ncnc32)C[C@@H]1O |  |  | < 50% |  |  |
|  | 330 µM | OC[C@H]1O[C@@H](n2cnc3c(-c4ccco4)ncnc32)C[C@@H]1O |  |  | < 50% | < 50% |  |
| 230 µM | 190 µM | OC[C@H]1O[C@@H](n2cnc3c(-c4cccs4)ccnc32)[C@H](O)[C@@H]1O | 310 µM |  |  |  |  |
|  | 290 µM | Nc1nc(-c2ccco2)c2ncn([C@H]3C[C@H](O)[C@@H](CO)O3)c2n1 |  |  | < 50% | < 50% |  |
| 120 µM | 56 µM | OC[C@H]1O[C@@H](n2cnc3c(-c4cccs4)ccnc32)C[C@@H]1O | 190 µM |  |  |  |  |
|  | 88 µM | Nc1nc(-c2cccs2)c2ncn([C@@H]3O[C@H](CO)[C@@H](O)[C@H]3O)c2n1 |  |  | < 50% | < 50% |  |

The next lines start with the compound.

| Compound | IC50 (CCRF-CEM [1]) | IC50 (HT-1080 [2]) | IC50 [3] | inhibition at 500 µM (HT-1080 [4]) | inhibition at 500 µM [5] | inhibition at 500 µM (CCRF-CEM [6]) | other results |
| --- | --- | --- | --- | --- | --- | --- | --- |
| O=c1[nH]cccc1[C@H]1C[C@H](O)[C@@H](CO)O1 |  |  |  | < 50% | < 50% |  |  |
| O=c1[nH]cccc1[C@@H]1O[C@H](CO)[C@@H](O)[C@H]1O |  |  |  | < 50% | < 50% |  |  |
| O=Cc1cccn1[C@@H]1O[C@H](CO)[C@@H](O)[C@H]1O |  |  |  | < 50% | < 50% | < 50% |  |
| O=c1[nH]c(=O)n([C@H]2C[C@H](O)[C@@H](CO)O2)cc1F [FLOXURIDINE] | 0.29 µM | 0.18 µM | 500 µM |  |  |  |  |
| O=Cc1cccn1[C@H]1C[C@H](O)[C@@H](CO)O1 |  |  |  | < 50% | < 50% | < 50% |  |
| Nc1nc(-c2cccs2)c2ncn([C@H]3C[C@H](O)[C@@H](CO)O3)c2n1 | 340 µM | 38 µM | 500 µM |  |  |  | viability at 5 µM (HT-1080 [7]): 97%; viability at 25 µM (HT-1080 [8]): 69%; viability at 5 µM [9]: 92%; viability at 25 µM (WI-38): 91% |
